Reference: ChEMBL document CHEMBL1201861, “Genomics of Drug Sensitity in Cancer screening data, Wellcome Trust Sanger Institute”
pIC50: −log10 of the molar value.

Legend:
Test in all cases: cells
Type in all cases: functional, cell-based
Settings in all cases: Homo sapiens
[1] = system: COR-L88;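 note: growth inhibition of COR-L88 cells, read out with a cell viability assay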
Description: SANGER: Inhibition of human COR-L88 cell growth in a cell viability assay.

[2] = system: NCI-H82;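 note: growth inhibition of NCI-H82 cells, measured with a cell viability readout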
Description: SANGER: Inhibition of human NCI-H82 cell growth in a cell viability assay.

[3] = system: LNCaP-Clone-FGC
Description: SANGER: Inhibition of human LNCaP-Clone-FGC cell growth in a cell viability assay.

[4] = system: MFM-223
Description: SANGER: Inhibition of human MFM-223 cell growth in a cell viability assay.

[5] = system: TE-10;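 note: growth inhibition of TE-10 cells, measured by a cell viability assay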
Description: SANGER: Inhibition of human TE-10 cell growth in a cell viability assay.

[6] = system: DSH1;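 note: growth inhibition of human DSH1 cells, measured with a cell viability readout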
Description: SANGER: Inhibition of human DSH1 cell growth in a cell viability assay.

[7] = system: A704;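 note: growth inhibition of human A704 cells, read out with a cell viability assay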
Description: SANGER: Inhibition of human A704 cell growth in a cell viability assay.

[8] = system: TE-6;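 note: growth inhibition of TE-6 cells, read out with a cell viability assay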
Description: SANGER: Inhibition of human TE-6 cell growth in a cell viability assay.

[9] = system: BT-474
Description: SANGER: Inhibition of human BT-474 cell growth in a cell viability assay.

[10] = system: TE-11;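 note: growth inhibition of human TE-11 cells, read out by a cell viability assay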
Description: SANGER: Inhibition of human TE-11 cell growth in a cell viability assay.

[11] = system: HEL;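 note: growth inhibition of HEL cells, read out with a cell viability assay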
Description: SANGER: Inhibition of human HEL cell growth in a cell viability assay.

[12] = system: BE-13;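 note: growth inhibition of human BE-13 cells, measured with a cell viability assay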
Description: SANGER: Inhibition of human BE-13 cell growth in a cell viability assay.

[13] = system: D-263MG
Description: SANGER: Inhibition of human D-263MG cell growth in a cell viability assay.

[14] = system: LB831-BLC;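 note: growth inhibition of LB831-BLC cells, read out with a cell viability assay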
Description: SANGER: Inhibition of human LB831-BLC cell growth in a cell viability assay.

[15] = system: NCI-H1304;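 note: growth inhibition of the cancer cell line, measured in a cell viability assay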
Description: SANGER: Inhibition of human NCI-H1304 cell growth in a cell viability assay.

[16] = system: KNS-42;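 note: growth inhibition of KNS-42 cells, read out with a cell viability assay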
Description: SANGER: Inhibition of human KNS-42 cell growth in a cell viability assay.

[17] = system: BV-173
Description: SANGER: Inhibition of human BV-173 cell growth in a cell viability assay.

[18] = system: GT3TKB;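 note: growth inhibition of the cell line, read out with a cell viability assay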
Description: SANGER: Inhibition of human GT3TKB cell growth in a cell viability assay.

[19] = system: OS-RC-2;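 note: growth inhibition of human OS-RC-2 cells, measured by a cell viability assay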
Description: SANGER: Inhibition of human OS-RC-2 cell growth in a cell viability assay.

[20] = system: A498;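 note: growth inhibition of human A498 cells, read out with a cell viability assay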
Description: SANGER: Inhibition of human A498 cell growth in a cell viability assay.

[21] = system: MEG-01;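 note: growth inhibition of MEG-01 cells, read out by a cell viability assay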
Description: SANGER: Inhibition of human MEG-01 cell growth in a cell viability assay.

[22] = system: DOHH-2;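 note: growth inhibition of human DOHH-2 cells, read out with a cell viability assay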
Description: SANGER: Inhibition of human DOHH-2 cell growth in a cell viability assay.

[23] = system: EW-1;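 note: growth inhibition of the human EW-1 cell line, read out by a cell viability assay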
Description: SANGER: Inhibition of human EW-1 cell growth in a cell viability assay.

[24] = system: SCH;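 note: growth inhibition of human SCH cells, read out in a cell viability assay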
Description: SANGER: Inhibition of human SCH cell growth in a cell viability assay.

[25] = system: LB1047-RCC;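 note: inhibition of cell growth, determined with a cell viability assay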
Description: SANGER: Inhibition of human LB1047-RCC cell growth in a cell viability assay.

[26] = system: CTV-1;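 note: growth inhibition of the cell line, read out with a cell viability assay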
Description: SANGER: Inhibition of human CTV-1 cell growth in a cell viability assay.

[27] = system: COLO-684
Description: SANGER: Inhibition of human COLO-684 cell growth in a cell viability assay.

[28] = system: RCC10RGB;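 note: growth inhibition of human RCC10RGB cells, read out by a cell viability assay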
Description: SANGER: Inhibition of human RCC10RGB cell growth in a cell viability assay.

[29] = system: ES5;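 note: growth inhibition of human ES5 cells, read out by a cell viability assay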
Description: SANGER: Inhibition of human ES5 cell growth in a cell viability assay.

[30] = system: KM-H2;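 note: growth inhibition of KM-H2 cells, read out by a cell viability assay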
Description: SANGER: Inhibition of human KM-H2 cell growth in a cell viability assay.

[31] = system: C2BBe1;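 note: growth inhibition of C2BBe1 cells, read out through a viability assay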
Description: SANGER: Inhibition of human C2BBe1 cell growth in a cell viability assay.

[32] = system: KM12;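 note: KM12 cell growth inhibition, read out with a cell viability assay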
Description: SANGER: Inhibition of human KM12 cell growth in a cell viability assay.

[33] = system: KARPAS-45;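 note: inhibition of cell line growth, read out through a viability assay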
Description: SANGER: Inhibition of human KARPAS-45 cell growth in a cell viability assay.

[34] = system: MHH-NB-11;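 note: growth inhibition of human MHH-NB-11 cells, read out by a cell viability assay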
Description: SANGER: Inhibition of human MHH-NB-11 cell growth in a cell viability assay.

[35] = system: OCUB-M;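 note: growth inhibition of the cancer cell line, read out through a cell viability assay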
Description: SANGER: Inhibition of human OCUB-M cell growth in a cell viability assay.

[36] = system: C8166;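 note: growth inhibition of human C8166 cells measured by a cell viability assay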
Description: SANGER: Inhibition of human C8166 cell growth in a cell viability assay.

[37] = system: KY821;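 note: growth inhibition of human KY821 cells, read out by a cell viability assay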
Description: SANGER: Inhibition of human KY821 cell growth in a cell viability assay.

[38] = system: SNU-5;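 note: cell viability readout used to measure growth inhibition in human NCI-SNU-5 cells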
Description: SANGER: Inhibition of human NCI-SNU-5 cell growth in a cell viability assay.

[39] = system: HL-60;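 note: growth inhibition of human HL-60 cells, read out with a cell viability assay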
Description: SANGER: Inhibition of human HL-60 cell growth in a cell viability assay.

[40] = system: EW-13;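 note: growth inhibition of EW-13 cells, read out with a cell viability assay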
Description: SANGER: Inhibition of human EW-13 cell growth in a cell viability assay.

[41] = system: ETK-1;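 note: growth inhibition of human ETK-1 cells, read out with a cell viability assay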
Description: SANGER: Inhibition of human ETK-1 cell growth in a cell viability assay.

[42] = system: A3-KAW;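 note: growth inhibition of human A3-KAW cells, read out with a cell viability assay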
Description: SANGER: Inhibition of human A3-KAW cell growth in a cell viability assay.

[43] = system: LAMA-84;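 note: growth inhibition of LAMA-84 cells, read out with a cell viability assay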
Description: SANGER: Inhibition of human LAMA-84 cell growth in a cell viability assay.

[44] = system: ES4;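 note: growth inhibition of human ES4 cells, read out by a cell viability assay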
Description: SANGER: Inhibition of human ES4 cell growth in a cell viability assay.

[45] = system: Mo
Description: SANGER: Inhibition of human Mo-T cell growth in a cell viability assay.

[46] = system: IST-MEL1;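 note: growth inhibition of the cell line, read out with a cell viability assay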
Description: SANGER: Inhibition of human IST-MEL1 cell growth in a cell viability assay.

[47] = system: L-428
Description: SANGER: Inhibition of human L-428 cell growth in a cell viability assay.

[48] = system: MN-60;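 note: growth inhibition of the MN-60 cell line, determined with a cell viability assay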
Description: SANGER: Inhibition of human MN-60 cell growth in a cell viability assay.

[49] = system: KS-1;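 note: growth inhibition of KS-1 cells, read out with a cell viability assay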
Description: SANGER: Inhibition of human KS-1 cell growth in a cell viability assay.

[50] = system: 8-MG-BA;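 note: growth inhibition of 8-MG-BA cells, read out with a cell viability assay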
Description: SANGER: Inhibition of human 8-MG-BA cell growth in a cell viability assay.

[51] = system: JAR;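 note: growth inhibition of human JAR cells determined with a cell viability assay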
Description: SANGER: Inhibition of human JAR cell growth in a cell viability assay.

[52] = system: MOLT-16;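 note: growth inhibition of human MOLT-16 cells, read out with a cell viability assay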
Description: SANGER: Inhibition of human MOLT-16 cell growth in a cell viability assay.

[53] = system: NTERA-2-cl-D1;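 note: inhibition of cell growth, measured with a cell viability assay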
Description: SANGER: Inhibition of human NTERA-S-cl-D1 cell growth in a cell viability assay.

[54] = system: CCRF-CEM;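 note: inhibition of CCRF-CEM cell growth, measured by a cell viability assay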
Description: SANGER: Inhibition of human CCRF-CEM cell growth in a cell viability assay.

[55] = system: NOMO-1;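 note: growth inhibition of human NOMO-1 cells measured by a cell viability assay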
Description: SANGER: Inhibition of human NOMO-1 cell growth in a cell viability assay.

[56] = system: RH-1;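 note: growth inhibition of human RH-1 cells, read out with a cell viability assay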
Description: SANGER: Inhibition of human RH-1 cell growth in a cell viability assay.

[57] = system: BB49-HNC;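 note: cell viability assay read-out, reported as inhibition of BB49-HNC cell growth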
Description: SANGER: Inhibition of human BB49-HNC cell growth in a cell viability assay.

[58] = system: LXF-289 cell line
Description: SANGER: Inhibition of human LXF-289 cell growth in a cell viability assay.

[59] = system: A388;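 note: growth inhibition of human A388 cells, read out with a cell viability assay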
Description: SANGER: Inhibition of human A388 cell growth in a cell viability assay.

[60] = system: KE-37
Description: SANGER: Inhibition of human KE-37 cell growth in a cell viability assay.

[61] = system: COLO-824
Description: SANGER: Inhibition of human COLO-824 cell growth in a cell viability assay.

## Cn1c(=O)n(-c2ccc(C(C)(C)C#N)cc2)c2c3cc(-c4cnc5ccccc5c4)ccc3ncc21 [DACTOLISIB]
[1]
  pIC50: 6.07
[2]
  pIC50: < 5.70
[3]
  pIC50: 7.42
[4]
  pIC50: 6.88
[5]
  pIC50: 6.39
[6]
  pIC50: 6.39
[7]
  pIC50: 7.25
[8]
  pIC50: 6.66
[9]
  pIC50: 6.63
[10]
  pIC50: 7.25
[11]
  pIC50: 6.96
[12]
  pIC50: 7.50
[13]
  pIC50: 7.53
[14]
  pIC50: 6.92
[15]
  pIC50: 5.78
[16]
  pIC50: 6.84
[17]
  pIC50: 7.62
[18]
  pIC50: 6.93
[19]
  pIC50: 7.78
[20]
  pIC50: 7.12
[21]
  pIC50: 7.20
[22]
  pIC50: 7.33
[23]
  pIC50: 6.92
[24]
  pIC50: 7.17
[25]
  pIC50: 7.41
[26]
  pIC50: 7.48
[27]
  pIC50: 7.47
[28]
  pIC50: 6.65
[29]
  pIC50: 7.83
[30]
  pIC50: 6.77
[31]
  pIC50: 7.12
[32]
  pIC50: 6.63
[33]
  pIC50: 7.87
[34]
  pIC50: 6.20
[35]
  pIC50: 7.08
[36]
  pIC50: < 5.70
[37]
  pIC50: 7.25
[38]
  pIC50: 6.47
[39]
  pIC50: 6.91
[40]
  pIC50: 7.02
[41]
  pIC50: 8.10
[42]
  pIC50: 7.54
[43]
  pIC50: 7.45
[44]
  pIC50: 7.68
[45]
  pIC50: 6.02
[46]
  pIC50: 7.73
[47]
  pIC50: 6.56
[48]
  pIC50: 7.42
[49]
  pIC50: 7.35
[50]
  pIC50: 7.43
[51]
  pIC50: 6.02
[52]
  pIC50: 7.77
[53]
  pIC50: 7.37
[54]
  pIC50: < 5.70
[55]
  pIC50: 7.34
[56]
  pIC50: 7.26
[57]
  pIC50: 6.76
[58]
  pIC50: 7.58
[59]
  pIC50: 6.60
[60]
  pIC50: 7.23
[61]
  pIC50: 6.16

## CC(=O)c1c(C)c2cnc(Nc3ccc(N4CCNCC4)cn3)nc2n(C2CCCC2)c1=O [PALBOCICLIB]
[1]
  pIC50: < 5.40
[2]
  pIC50: < 5.40
[3]
  pIC50: < 5.40
[4]
  pIC50: < 5.40
[5]
  pIC50: < 5.40
[6]
  pIC50: < 5.40
[7]
  pIC50: < 5.40
[8]
  pIC50: < 5.40
[9]
  pIC50: < 5.40
[10]
  pIC50: 5.98
[11]
  pIC50: 5.89
[12]
  pIC50: 6.35
[13]
  pIC50: 6.14
[14]
  pIC50: < 5.40
[15]
  pIC50: < 5.40
[16]
  pIC50: < 5.40
[17]
  pIC50: 6.19
[18]
  pIC50: 5.59
[19]
  pIC50: 6.28
[20]
  pIC50: < 5.40
[21]
  pIC50: < 5.40
[22]
  pIC50: < 5.40
[23]
  pIC50: < 5.40
[24]
  pIC50: < 5.40
[25]
  pIC50: 6.03
[26]
  pIC50: 5.60
[27]
  pIC50: < 5.40
[28]
  pIC50: < 5.40
[29]
  pIC50: 6.12
[30]
  pIC50: 6.16
[31]
  pIC50: < 5.40
[32]
  pIC50: 5.74
[33]
  pIC50: 6.42
[34]
  pIC50: 6.66
[35]
  pIC50: < 5.40
[36]
  pIC50: < 5.40
[37]
  pIC50: 6.50
[38]
  pIC50: < 5.40
[39]
  pIC50: 6.47
[40]
  pIC50: < 5.40
[41]
  pIC50: 5.52
[42]
  pIC50: 5.96
[43]
  pIC50: 6.59
[44]
  pIC50: 5.61
[45]
  pIC50: < 5.40
[46]
  pIC50: < 5.40
[47]
  pIC50: < 5.40
[48]
  pIC50: 5.64
[49]
  pIC50: < 5.40
[50]
  pIC50: < 5.40
[51]
  pIC50: < 5.40
[52]
  pIC50: 6.59
[53]
  pIC50: < 5.40
[54]
  pIC50: < 5.40
[55]
  pIC50: < 5.40
[56]
  pIC50: < 5.40
[57]
  pIC50: < 5.40
[58]
  pIC50: < 5.40
[59]
  pIC50: < 5.40
[60]
  pIC50: 5.68
[61]
  pIC50: < 5.40
